From BindingDB's records for doi:10.1016/j.bmcl.2009.07.052 (Incyte, 2009)

What follows are molecules tested against Receptor tyrosine-protein kinase erbB-2 (Homo sapiens, UniProt P04626) (assay: Inhibition of HER-2).
Receptor tyrosine-protein kinase erbB-2, sequence (P04626 whole entry): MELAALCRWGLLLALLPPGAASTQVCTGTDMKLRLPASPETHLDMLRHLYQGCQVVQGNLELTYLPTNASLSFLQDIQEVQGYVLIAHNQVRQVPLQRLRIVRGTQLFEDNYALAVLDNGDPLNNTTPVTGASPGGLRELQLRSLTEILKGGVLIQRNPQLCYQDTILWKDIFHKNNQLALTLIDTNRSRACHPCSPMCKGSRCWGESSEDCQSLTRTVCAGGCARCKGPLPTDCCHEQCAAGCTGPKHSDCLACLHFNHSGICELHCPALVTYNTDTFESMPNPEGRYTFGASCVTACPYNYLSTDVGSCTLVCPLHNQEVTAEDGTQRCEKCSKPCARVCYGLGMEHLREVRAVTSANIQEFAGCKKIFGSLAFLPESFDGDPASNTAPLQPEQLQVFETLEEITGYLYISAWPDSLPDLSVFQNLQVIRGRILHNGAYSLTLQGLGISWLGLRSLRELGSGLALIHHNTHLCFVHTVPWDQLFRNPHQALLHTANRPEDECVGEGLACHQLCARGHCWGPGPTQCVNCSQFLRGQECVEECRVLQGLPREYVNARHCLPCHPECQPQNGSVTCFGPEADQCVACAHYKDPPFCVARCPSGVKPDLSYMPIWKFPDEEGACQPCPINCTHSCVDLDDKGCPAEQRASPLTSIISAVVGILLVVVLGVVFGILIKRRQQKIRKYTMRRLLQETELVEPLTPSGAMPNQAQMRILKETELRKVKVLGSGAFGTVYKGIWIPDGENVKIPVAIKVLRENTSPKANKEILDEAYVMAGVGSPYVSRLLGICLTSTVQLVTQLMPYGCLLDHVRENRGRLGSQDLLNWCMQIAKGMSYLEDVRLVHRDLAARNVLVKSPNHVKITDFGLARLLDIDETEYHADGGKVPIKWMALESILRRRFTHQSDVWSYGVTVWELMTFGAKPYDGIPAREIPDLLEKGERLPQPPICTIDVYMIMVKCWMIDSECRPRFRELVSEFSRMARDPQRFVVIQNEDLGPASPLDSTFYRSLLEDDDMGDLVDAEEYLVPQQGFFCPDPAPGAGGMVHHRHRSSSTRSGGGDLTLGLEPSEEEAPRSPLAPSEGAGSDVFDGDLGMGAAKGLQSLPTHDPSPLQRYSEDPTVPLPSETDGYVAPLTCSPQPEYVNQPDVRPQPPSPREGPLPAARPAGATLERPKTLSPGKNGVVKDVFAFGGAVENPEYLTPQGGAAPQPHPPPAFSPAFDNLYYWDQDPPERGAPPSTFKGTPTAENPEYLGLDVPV

| Structure (SMILES) | IC50 |
| --- | --- |
| CC(C)C(=O)N(C)C1CN[C@H](C(=O)N2CC[C@H](c3ccccc3)C2)[C@@H](C(=O)NO)C1 (stereo partly drawn) [(2S,3S)-N-hydroxy-5-(N-methylisobutyramido)-2-((R)-3-phenylpyrrolidine-1-carbonyl)piperidine-3-carboxamide] | 52 nM |
| CN1C[C@@H](OC(=O)N2CCCCC2)C[C@H](C(=O)NO)[C@H]1C(=O)N1CCN(c2ccccc2)CC1 [(3S,5S,6S)-5-(hydroxycarbamoyl)-1-methyl-6-(4-phenylpiperazine-1-carbonyl)piperidin-3-yl piperidine-1-carboxylate] | 7.3 nM |
| O=C(NO)[C@H]1C[C@H](OC(=O)N2CCCC2)CN[C@@H]1C(=O)N1CCN(c2ccccc2)CC1 [(5S,6S)-5-(hydroxycarbamoyl)-6-(4-phenylpiperazine-1-carbonyl)piperidin-3-yl pyrrolidine-1-carboxylate] | 3.8 nM |
| O=C(NO)[C@H]1CC(CC(=O)N2CCCC2)CN[C@@H]1C(=O)N1CC=C(c2ccccc2)CC1 (stereo partly drawn) [(2S,3S)-N-hydroxy-5-(2-oxo-2-(pyrrolidin-1-yl)ethyl)-2-(4-phenyl-1,2,3,6-tetrahydropyridine-1-carbonyl)piperidine-3-carboxamide] | 4.3 nM |
| CN(C(=O)c1ccccc1)C1CN[C@H](C(=O)N2CC[C@H](c3ccccc3)C2)[C@@H](C(=O)NO)C1 (stereo partly drawn) [(2S,3S)-N-hydroxy-5-(N-methylbenzamido)-2-((R)-3-phenylpyrrolidine-1-carbonyl)piperidine-3-carboxamide] | 29 nM |
| O=C(NO)[C@H]1CC(OC(=O)N2CCCC2)CN[C@@H]1C(=O)N1CC[C@H](c2ccccc2)C1 (stereo partly drawn) | 28 nM |
| O=C(NO)[C@H]1CC(OC(=O)N2CCCC2)CN[C@@H]1C(=O)N1Cc2ccccc2C1 (stereo partly drawn) [(5S,6S)-5-(hydroxycarbamoyl)-6-(isoindoline-2-carbonyl)piperidin-3-yl pyrrolidine-1-carboxylate] | 70 nM |
| O=C(NO)[C@H]1C[C@@H](OC(=O)N2CCCC2)CN[C@@H]1C(=O)N1CC=C(c2ccccc2)CC1 [(3R,5S,6S)-5-(hydroxycarbamoyl)-6-(4-phenyl-1,2,3,6-tetrahydropyridine-1-carbonyl)piperidin-3-yl pyrrolidine-1-carboxylate] | 30 nM |
| CN1C[C@@H](OC(=O)N2CCC(F)(F)C2)C[C@H](C(=O)NO)[C@H]1C(=O)N1CCN(c2ccccc2)CC1 [(3S,5S,6S)-5-(hydroxycarbamoyl)-1-methyl-6-(4-phenylpiperazine-1-carbonyl)piperidin-3-yl 3,3-difluoropyrrolidine-1-carboxylate] | 50.5 nM |
| O=C(NO)[C@H]1C[C@H](OC(=O)N2CCCC2)CN[C@@H]1C(=O)N1CC=C(c2ccccc2)C1 [(5S,6S)-5-(hydroxycarbamoyl)-6-(3-phenyl-2,5-dihydro-1H-pyrrole-1-carbonyl)piperidin-3-yl pyrrolidine-1-carboxylate] | 11 nM |
| CC(C)OC(=O)N(C)C1CN[C@H](C(=O)N2CC=C(c3ccccc3)CC2)[C@@H](C(=O)NO)C1 (stereo partly drawn) [isopropyl-(5S,6S)-5-(hydroxycarbamoyl)-6-(4-phenyl-1,2,3,6-tetrahydropyridine-1-carbonyl)piperidin-3-yl(methyl)carbamate] | 8.5 nM |
| CN1C[C@@H](OC(=O)N2CC=CC2)C[C@H](C(=O)NO)[C@H]1C(=O)N1CCN(c2ccccc2)CC1 [(3S,5S,6S)-5-(hydroxycarbamoyl)-1-methyl-6-(4-phenylpiperazine-1-carbonyl)piperidin-3-yl 2,5-dihydro-1H-pyrrole-1-carboxylate] | 3.8 nM |
| O=C(NO)[C@H]1CC(OC(=O)N2CCCC2)CN[C@@H]1C(=O)N1CC=C(c2ccccc2)CC1 (stereo partly drawn) [(5S,6S)-5-(hydroxycarbamoyl)-6-(4-phenyl-1,2,3,6-tetrahydropyridine-1-carbonyl)piperidin-3-yl pyrrolidine-1-carboxylate] | 5.6 nM |
| CN1C[C@@H](OC(=O)N2CCCCCCC2)C[C@H](C(=O)NO)[C@H]1C(=O)N1CCN(c2ccccc2)CC1 [(3S,5S,6S)-5-(hydroxycarbamoyl)-1-methyl-6-(4-phenylpiperazine-1-carbonyl)piperidin-3-yl azocane-1-carboxylate] | 27.5 nM |
| CC(C)C(=O)N(C)C1CN[C@H](C(=O)N2CC=C(c3ccccc3)CC2)[C@@H](C(=O)NO)C1 (stereo partly drawn) [(2S,3S)-N-hydroxy-5-(N-methylisobutyramido)-2-(4-phenyl-1,2,3,6-tetrahydropyridine-1-carbonyl)piperidine-3-carboxamide] | 15.5 nM |
| CN1C[C@@H](OC(=O)N2CCC2)C[C@H](C(=O)NO)[C@H]1C(=O)N1CCN(c2ccccc2)CC1 [(3S,5S,6S)-5-(hydroxycarbamoyl)-1-methyl-6-(4-phenylpiperazine-1-carbonyl)piperidin-3-yl azetidine-1-carboxylate] | 44.5 nM |
| CN(C(=O)c1ccccc1)C1CN[C@H](C(=O)N2CC=C(c3ccccc3)CC2)[C@@H](C(=O)NO)C1 (stereo partly drawn) [(2S,3S)-N-hydroxy-5-(N-methylbenzamido)-2-(4-phenyl-1,2,3,6-tetrahydropyridine-1-carbonyl)piperidine-3-carboxamide] | 10 nM |
| COC(=O)N1C[C@@H](OC(=O)N2CCCC2)C[C@H](C(=O)NO)[C@H]1C(=O)N1CCN(c2ccccc2)CC1 [(2S,3S,5S)-methyl 3-(hydroxycarbamoyl)-2-(4-phenylpiperazine-1-carbonyl)-5-(pyrrolidine-1-carbonyloxy)piperidine-1-carboxylate] | 8.1 nM |
| O=C(NO)[C@H]1C[C@H](OC(=O)N2CCCC2)CN[C@@H]1C(=O)N1CCC(c2ccccc2)CC1 [(5S,6S)-5-(hydroxycarbamoyl)-6-(4-phenylpiperidine-1-carbonyl)piperidin-3-yl pyrrolidine-1-carboxylate] | 42 nM |
| CN(C)C(=O)O[C@H]1C[C@H](C(=O)NO)[C@@H](C(=O)N2CCN(c3ccccc3)CC2)N(C)C1 [(3S,5S,6S)-5-(hydroxycarbamoyl)-1-methyl-6-(4-phenylpiperazine-1-carbonyl)piperidin-3-yl dimethylcarbamate] | 31 nM |
| CN1C[C@@H](OC(=O)N2CCCC2)C[C@H](C(=O)NO)[C@H]1C(=O)N1CCN(c2ccccc2)CC1 [(3S,5S,6S)-5-(hydroxycarbamoyl)-1-methyl-6-(4-phenylpiperazine-1-carbonyl)piperidin-3-yl pyrrolidine-1-carboxylate] | 11.5 nM |
| CN1C[C@@H](OC(=O)N2CCCCCC2)C[C@H](C(=O)NO)[C@H]1C(=O)N1CCN(c2ccccc2)CC1 [(3S,5S,6S)-5-(hydroxycarbamoyl)-1-methyl-6-(4-phenylpiperazine-1-carbonyl)piperidin-3-yl azepane-1-carboxylate] | 4.4 nM |
| O=C(NO)[C@H]1CC(CC(=O)N2CCCC2)CN[C@@H]1C(=O)N1CC[C@H](c2ccccc2)C1 (stereo partly drawn) [(2S,3S)-N-hydroxy-5-(2-oxo-2-(pyrrolidin-1-yl)ethyl)-2-((R)-3-phenylpyrrolidine-1-carbonyl)piperidine-3-carboxamide] | 5.6 nM |
